Data reported in patent publication US10780074B2, “Compounds and uses thereof” (Sunovion Pharmaceuticals Inc., priority 2017, dated 2020).
Counter-ions that a name gives are not always drawn. Like-named read-outs stand apart in the source and are kept apart here.

Test system: behaviors of compound-treated mice
Assay: Neuropharmacological Assay (SmartCube)
Type: in vivo
Conditions: for minimal effective dose: Mus musculus, ip, 0.25 h, dose having 50% or more total activity in SmartCube, read-out: MED (minimal effective dose)
How it was run: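 Behavioral signatures were captured automatically by video, and each drug class received a probability for the best of three i.p. doses given 15 min pre-test (vehicle: Pharmasolve/PEG/propylene glycol). Potency is given as MED, the lowest mpk dose (typically 0.3–30) reaching 50% or more total activity.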

[1] = i.p. 15 min before behavioral test, most efficacious dose(s) of 3 doses
[2] = SmartCube, i.p. 15 min before test, most efficacious dose(s)

Row | Structure (SMILES) | minimal effective dose (i.p.) [mg/kg] | AD: ADHD (probability that activity matches class) [1] | AG: analgesic (probability that activity matches class) [1] | AX: anxiolytic (probability that activity matches class) [1] | CE: cognitive enhancer (probability that activity matches class) [1] | DP: anti-depressant (probability that activity matches class) [1] | MS: mood stabilizer (probability that activity matches class) [1] | PS: anti-psychotic (probability that activity matches class) [1] | SD: sedative hypnotic (probability that activity matches class) [1] | UN: uncharacterized CNS activity (probability that activity matches class) [1] | minimal effective dose [mg/kg] | AD: ADHD (probability that activity matches class) [2] | AG: analgesic (probability that activity matches class) [2] | AX: anxiolytic (probability that activity matches class) [2] | CE: cognitive enhancer (probability that activity matches class) [2] | DP: anti-depressant (probability that activity matches class) [2] | MS: mood stabilizer (probability that activity matches class) [2] | PS: anti-psychotic (probability that activity matches class) [2] | SD: sedative hypnotic (probability that activity matches class) [2] | UN: uncharacterized CNS activity (probability that activity matches class) [2]
1 | NC[C@H]1OCc2c(-c3ccccn3)cccc21 (single isomer, unassigned) [Compound 42] | 10 to 30 | + (LOQ ≤ + <5%) | +++ (25% ≤ +++ <50%) | ++ (5% ≤ ++ <25%) | ++ (5% ≤ ++ <25%) | ++ (5% ≤ ++ <25%) | + (LOQ ≤ + <5%) | + (LOQ ≤ + <5%) | + (LOQ ≤ + <5%) | ++ (5% ≤ ++ <25%) | – | – | – | – | – | – | – | – | – | –
2 | CNC[C@H]1OCCc2c(-c3c[nH]cn3)cccc21 (single isomer, unassigned) [Compound 115, hydrochloride salt] | 10 to 30 | + (LOQ ≤ + <5%) | + (LOQ ≤ + <5%) | ++ (5% ≤ ++ <25%) | + (LOQ ≤ + <5%) | + (LOQ ≤ + <5%) | + (LOQ ≤ + <5%) | + (LOQ ≤ + <5%) | + (LOQ ≤ + <5%) | + (LOQ ≤ + <5%) | – | – | – | – | – | – | – | – | – | –
3 | CNC[C@H]1OCCc2cc(-c3ncccn3)ccc21 [Compound 22, (S)—N-Methyl-1-(6-(pyrimidin-2-yl)isochroman-1-yl)methanamine hydrochloride salt] | 10 to 30 | + (LOQ ≤ + <5%) | ++ (5% ≤ ++ <25%) | ++ (5% ≤ ++ <25%) | ++ (5% ≤ ++ <25%) | ++ (5% ≤ ++ <25%) | + (LOQ ≤ + <5%) | + (LOQ ≤ + <5%) | + (LOQ ≤ + <5%) | +++ (25% ≤ +++ <50%) | – | – | – | – | – | – | – | – | – | –
4 | NC[C@H]1OCCc2ccc(-c3ccncc3)cc21 [Compound 48, (S)-(7-(pyridin-4-yl)isochroman-1-yl)methanamine hydrochloride] | 3 to 10 | + (LOQ ≤ + <5%) | + (LOQ ≤ + <5%) | ++ (5% ≤ ++ <25%) | ++ (5% ≤ ++ <25%) | + (LOQ ≤ + <5%) | + (LOQ ≤ + <5%) | ++ (5% ≤ ++ <25%) | +++ (25% ≤ +++ <50%) | +++ (25% ≤ +++ <50%) | – | – | – | – | – | – | – | – | – | –
5 | CNC[C@H]1OCCc2c1cccc2-n1ccnc1 [Compound 183, (S)-1-(5-(1H-Imidazol-1-yl)isochroman-1-yl)-N-methylmethanamine hydrochloride salt] | – | – | – | – | – | – | – | – | – | – | 3 to 10 | + (LOQ ≤ + <5%) | + (LOQ ≤ + <5%) | + (LOQ ≤ + <5%) | + (LOQ ≤ + <5%) | ++++ (50% ≤ ++++) | + (LOQ ≤ + <5%) | + (LOQ ≤ + <5%) | + (LOQ ≤ + <5%) | ++ (5% ≤ ++ <25%)
6 | NC[C@H]1OCCc2c(-c3cncnc3)cccc21 (single isomer, unassigned) [Compound 28, hydrochloride salt] | 3 to 10 | ++ (5% ≤ ++ <25%) | ++ (5% ≤ ++ <25%) | ++ (5% ≤ ++ <25%) | ++ (5% ≤ ++ <25%) | +++ (25% ≤ +++ <50%) | + (LOQ ≤ + <5%) | ++ (5% ≤ ++ <25%) | + (LOQ ≤ + <5%) | ++ (5% ≤ ++ <25%) | – | – | – | – | – | – | – | – | – | –
7 | CNC[C@H]1OCc2c(-c3cccnc3)cccc21 [Compound 34, (S)—N-Methyl-1-(4-(pyridin-3-yl)-1,3-dihydroisobenzofuran-1-yl)methanamine hydrochloride salt] | ≤ 3 | + (LOQ ≤ + <5%) | + (LOQ ≤ + <5%) | ++ (5% ≤ ++ <25%) | + (LOQ ≤ + <5%) | ++++ (50% ≤ ++++) | ++ (5% ≤ ++ <25%) | + (LOQ ≤ + <5%) | + (LOQ ≤ + <5%) | + (LOQ ≤ + <5%) | – | – | – | – | – | – | – | – | – | –
8 | CNC[C@H]1OCCc2c(-c3cnoc3)cccc21 (single isomer, unassigned) [Compound 85, hydrochloride salt] | ≤ 3 | ++ (5% ≤ ++ <25%) | + (LOQ ≤ + <5%) | ++ (5% ≤ ++ <25%) | + (LOQ ≤ + <5%) | ++++ (50% ≤ ++++) | + (LOQ ≤ + <5%) | + (LOQ ≤ + <5%) | + (LOQ ≤ + <5%) | ++ (5% ≤ ++ <25%) | – | – | – | – | – | – | – | – | – | –
9 | CNC[C@@H]1OCCc2ccc(-c3ccncc3)cc21 [Compound 49, (R)—N-Methyl-1-(7-(pyridin-4-yl)isochroman-1-yl)methanamine hydrochloride] | ≤ 3 | + (LOQ ≤ + <5%) | ++ (5% ≤ ++ <25%) | ++ (5% ≤ ++ <25%) | ++ (5% ≤ ++ <25%) | ++ (5% ≤ ++ <25%) | + (LOQ ≤ + <5%) | ++ (5% ≤ ++ <25%) | + (LOQ ≤ + <5%) | ++++ (50% ≤ ++++) | – | – | – | – | – | – | – | – | – | –
10 | CNC[C@@H]1OCCc2c(-c3cn[nH]c3)cccc21 [Compound 118, (R)-1-(5-(1H-pyrazol-4-yl)isochroman-1-yl)-N-methylmethanamine hydrochloride salt] | 10 to 30 | + (LOQ ≤ + <5%) | ++ (5% ≤ ++ <25%) | ++ (5% ≤ ++ <25%) | + (LOQ ≤ + <5%) | ++ (5% ≤ ++ <25%) | + (LOQ ≤ + <5%) | + (LOQ ≤ + <5%) | +++ (25% ≤ +++ <50%) | ++ (5% ≤ ++ <25%) | – | – | – | – | – | – | – | – | – | –
11 | CNC[C@H]1OCCc2c(-c3ncco3)cccc21 [Compound 105, (S)—N-methyl-1-(5-(oxazol-2-yl)isochroman-1-yl)methanamine dihydrochloride] | 3 to 10 | + (LOQ ≤ + <5%) | + (LOQ ≤ + <5%) | + (LOQ ≤ + <5%) | + (LOQ ≤ + <5%) | ++++ (50% ≤ ++++) | + (LOQ ≤ + <5%) | + (LOQ ≤ + <5%) | + (LOQ ≤ + <5%) | ++ (5% ≤ ++ <25%) | – | – | – | – | – | – | – | – | – | –
12 | NCC1OCCc2c(-c3cnccn3)cccc21 (stereo not shown) [Compound 63, (5-(Pyrazin-2-yl)isochroman-1-yl)methanamine hydrochloride salt] | 3 to 10 | ++ (5% ≤ ++ <25%) | + (LOQ ≤ + <5%) | ++ (5% ≤ ++ <25%) | + (LOQ ≤ + <5%) | ++++ (50% ≤ ++++) | + (LOQ ≤ + <5%) | + (LOQ ≤ + <5%) | + (LOQ ≤ + <5%) | + (LOQ ≤ + <5%) | – | – | – | – | – | – | – | – | – | –
13 | CNC[C@H]1OCc2c(-c3ccncc3)cccc21 [Compound 40, (S)—N-Methyl-1-(4-(pyridin-4-yl)-1,3-dihydroisobenzofuran-1-yl)methanamine hydrochloride salt] | ≤ 3 | ++ (5% ≤ ++ <25%) | ++++ (50% ≤ ++++) | ++ (5% ≤ ++ <25%) | ++ (5% ≤ ++ <25%) | ++++ (50% ≤ ++++) | + (LOQ ≤ + <5%) | + (LOQ ≤ + <5%) | + (LOQ ≤ + <5%) | + (LOQ ≤ + <5%) | – | – | – | – | – | – | – | – | – | –
